Columns and labels:
Assay type in all cases: cell-based
IL-1β = test: Whole bovine blood assay, LPS-induced IL-1β (inhibition / overstimulation); details: drug concentration giving overstimulation (OS) of LPS-induced IL-1β, top concentration 250 μM
Outline: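 Fresh heparinized bovine whole blood was preincubated with compound at varying concentrations for 4 h at 37 °C, then stimulated with 1 μg/mL LPS for 18 h. Plasma IL-1β was measured by MSD chemiluminescent immunoassay and normalized to total protein. Values cover inhibition and concentration-dependent overstimulation.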

TNF-α = test: Whole bovine blood assay, LPS-induced TNF-α; details: fresh whole bovine blood, LPS stimulant; top drug concentration 250 μM
Outline: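 Fresh heparinized bovine whole blood was preincubated with compound 4 h at 37 °C, then stimulated with LPS (final 1 μg/mL) for 18 h at 37 °C. Plasma TNF-α was quantified by MSD U-Plex chemiluminescent immunoassay, normalized to total protein (BCA), and IC50 taken for LPS-induced TNF-α inhibition.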

IL-6 = test: Whole bovine blood assay, LPS-induced IL-6; details: fresh whole bovine blood, LPS stimulant; top drug concentration 250 μM

Compound | IC50 (TNF-α) [µM] | IC50 (IL-6) [µM] | minimal effective concentration (IL-1β) [µM]
CC[C@H]1OC(=O)[C@H](C)[C@@H](O)[C@H](C)[C@@H](O[C@@H]2O[C@H](C)C[C@H](N(C)S(=O)(=O)c3nccn3C)[C@H]2Oc2ccc(F)c(C(F)(F)F)c2)[C@](C)(O)C[C@@H](C)CN[C@H](C)[C@@H](O)[C@]1(C)O [Example A-34] | 205 | 59 | 40
CCCNC[C@]1(O)[C@H](C)O[C@@H](O[C@H]2[C@H](C)[C@@H](O[C@@H]3O[C@H](C)C[C@H](N(C)S(=O)(=O)N4CCc5ccccc5C4)[C@H]3O)[C@](C)(O)C[C@@H](C)CN[C@H](C)[C@@H](O)[C@](C)(O)[C@@H](CC)OC(=O)[C@@H]2C)C[C@@]1(C)OC [Example B-42] | 13 | 8 | 2
CCCNC[C@]1(O)[C@H](C)O[C@@H](O[C@H]2[C@H](C)[C@@H](O[C@@H]3O[C@H](C)C[C@H](N(C)S(=O)(=O)N(C)Cc4ccccc4)[C@H]3O)[C@](C)(O)C[C@@H](C)CN[C@H](C)[C@@H](O)[C@](C)(O)[C@@H](CC)OC(=O)[C@@H]2C)C[C@@]1(C)OC [Example B-44] | 13 | 9 | 3
CCCNC[C@]1(O)[C@H](C)O[C@@H](O[C@H]2[C@H](C)[C@@H](O[C@@H]3O[C@H](C)C[C@H](N(C)S(=O)(=O)N4Cc5ccccc5C4)[C@H]3O)[C@](C)(O)C[C@@H](C)CN[C@H](C)[C@@H](O)[C@](C)(O)[C@@H](CC)OC(=O)[C@@H]2C)C[C@@]1(C)OC [Example B-45] | 16 | 8 | 3
CCCNC[C@]1(O)[C@H](C)O[C@@H](O[C@H]2[C@H](C)[C@@H](O[C@@H]3O[C@H](C)C[C@H](N(C)S(=O)(=O)N4CCCCC4)[C@H]3O)[C@](C)(O)C[C@@H](C)CN[C@H](C)[C@@H](O)[C@](C)(O)[C@@H](CC)OC(=O)[C@@H]2C)C[C@@]1(C)OC [Example B-47] | 13 | 24 | 40
CCCNC[C@]1(O)[C@H](C)O[C@@H](O[C@H]2[C@H](C)[C@@H](O[C@@H]3O[C@H](C)C[C@H](N(C)S(=O)(=O)N(C)C)[C@H]3O)[C@](C)(O)C[C@@H](C)CN[C@H](C)[C@@H](O)[C@](C)(O)[C@@H](CC)OC(=O)[C@@H]2C)C[C@@]1(C)OC [Example B-51] | 38 | 62 | 97

Now from value to compound, other results behind:

IC50 (TNF-α) [µM] | IC50 (IL-6) [µM] | Compound | minimal effective concentration (IL-1β) [µM]
> 250 | 54 | CC[C@H]1OC(=O)[C@H](C)[C@@H](O[C@H]2C[C@@](C)(OC)[C@](O)(CNCCN(C)C)[C@H](C)O2)[C@H](C)[C@@H](O[C@@H]2O[C@H](C)C[C@H](N(C)S(=O)(=O)c3ccc(Cl)cc3)[C@H]2O)[C@](C)(O)C[C@@H](C)CN[C@H](C)[C@@H](O)[C@]1(C)O [Example B-35] | 16
32 | 22 | CC[C@H]1OC(=O)[C@H](C)[C@@H](O[C@H]2C[C@@](C)(OC)[C@](O)(CNC)[C@H](C)O2)[C@H](C)[C@@H](O[C@@H]2O[C@H](C)C[C@H](N(C)S(=O)(=O)c3ccc(Cl)cc3)[C@H]2O)[C@](C)(O)C[C@@H](C)CN[C@H](C)[C@@H](O)[C@]1(C)O [Example B-38] | 5
85 | 26 | CCCNC[C@]1(O)[C@H](C)O[C@@H](O[C@H]2[C@H](C)[C@@H](O[C@@H]3O[C@H](C)C[C@H](N(C)S(=O)(=O)Nc4ccc(F)cc4)[C@H]3O)[C@](C)(O)C[C@@H](C)CN[C@H](C)[C@@H](O)[C@](C)(O)[C@@H](CC)OC(=O)[C@@H]2C)C[C@@]1(C)OC [Example B-53] | 16
> 250 | > 32 | CCCNC[C@]1(O)[C@H](C)O[C@@H](O[C@H]2[C@H](C)[C@@H](O[C@@H]3O[C@H](C)C[C@H](N(C)S(=O)(=O)NC)[C@H]3O)[C@](C)(O)C[C@@H](C)CN[C@H](C)[C@@H](O)[C@](C)(O)[C@@H](CC)OC(=O)[C@@H]2C)C[C@@]1(C)OC [Example B-55] | 26

Source: patent publication US20250236616A1, “IMMUNOMODULATING AZALIDES” (Zoetis Services LLC, priority 2021, published 2025)
